The values below come from US10189841B2, “Purinones as ubiquitin-specific protease 1 inhibitors” (Forma Therapeutics, Inc., priority 2015, dated 2019).

For orientation: IC50 means the concentration needed to halve the response being measured. High values mean lower potency, low ones higher potency.

SMILES strings stand for the structures. Bounds are passed on as bounds.

For this assay, the target named is USP1 (construct USP1 (I-785, GG670, 671AA)/UAF1 (I-677)-Flag) (Homo sapiens (Human), UniProt O94782, G670A/G671A). Put plainly: Ubiquitin-Rhodamine 110 assay for USP1 activity. It counts as biochemical. The settings on record: USP1/UAF1 25 pM, Ub-Rh110 25 nM, 30 min preincubation. The method in brief: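 Two formats with the USP1/UAF1 complex and 25 nM ubiquitin-rhodamine 110 in pH 8.0 Tris buffer with calcium, glutathione and detergent. Single-point screening used 10 µM, 100 pM enzyme and 45 min. Inhibition was set against no-enzyme and DMSO wells.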
USP1 (construct USP1 (I-785, GG670, 671AA)/UAF1 (I-677)-Flag), sequence (O94782 whole entry G670A/G671A): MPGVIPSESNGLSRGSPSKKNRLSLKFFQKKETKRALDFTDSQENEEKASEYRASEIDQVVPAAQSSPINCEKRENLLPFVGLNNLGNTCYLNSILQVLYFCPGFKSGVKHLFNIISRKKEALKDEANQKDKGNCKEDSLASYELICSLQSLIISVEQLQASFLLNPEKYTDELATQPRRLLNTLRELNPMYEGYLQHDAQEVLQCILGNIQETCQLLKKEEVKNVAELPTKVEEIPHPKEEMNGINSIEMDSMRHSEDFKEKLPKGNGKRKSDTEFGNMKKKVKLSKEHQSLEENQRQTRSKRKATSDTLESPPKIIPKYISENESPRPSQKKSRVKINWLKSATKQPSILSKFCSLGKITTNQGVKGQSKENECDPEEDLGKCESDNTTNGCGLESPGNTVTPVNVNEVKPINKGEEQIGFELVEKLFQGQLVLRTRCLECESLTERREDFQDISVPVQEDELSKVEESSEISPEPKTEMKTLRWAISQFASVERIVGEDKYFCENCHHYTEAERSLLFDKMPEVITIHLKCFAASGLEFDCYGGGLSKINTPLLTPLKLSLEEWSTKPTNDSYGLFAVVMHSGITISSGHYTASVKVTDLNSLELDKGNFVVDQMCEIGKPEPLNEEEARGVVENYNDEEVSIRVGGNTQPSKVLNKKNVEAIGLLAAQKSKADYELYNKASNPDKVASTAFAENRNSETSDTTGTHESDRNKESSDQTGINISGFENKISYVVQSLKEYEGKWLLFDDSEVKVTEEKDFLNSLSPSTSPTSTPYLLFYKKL
USP1 (construct USP1 (I-785, GG670, 671AA)/UAF1 (I-677)-Flag), sequence (Q8TAF3 whole entry partner): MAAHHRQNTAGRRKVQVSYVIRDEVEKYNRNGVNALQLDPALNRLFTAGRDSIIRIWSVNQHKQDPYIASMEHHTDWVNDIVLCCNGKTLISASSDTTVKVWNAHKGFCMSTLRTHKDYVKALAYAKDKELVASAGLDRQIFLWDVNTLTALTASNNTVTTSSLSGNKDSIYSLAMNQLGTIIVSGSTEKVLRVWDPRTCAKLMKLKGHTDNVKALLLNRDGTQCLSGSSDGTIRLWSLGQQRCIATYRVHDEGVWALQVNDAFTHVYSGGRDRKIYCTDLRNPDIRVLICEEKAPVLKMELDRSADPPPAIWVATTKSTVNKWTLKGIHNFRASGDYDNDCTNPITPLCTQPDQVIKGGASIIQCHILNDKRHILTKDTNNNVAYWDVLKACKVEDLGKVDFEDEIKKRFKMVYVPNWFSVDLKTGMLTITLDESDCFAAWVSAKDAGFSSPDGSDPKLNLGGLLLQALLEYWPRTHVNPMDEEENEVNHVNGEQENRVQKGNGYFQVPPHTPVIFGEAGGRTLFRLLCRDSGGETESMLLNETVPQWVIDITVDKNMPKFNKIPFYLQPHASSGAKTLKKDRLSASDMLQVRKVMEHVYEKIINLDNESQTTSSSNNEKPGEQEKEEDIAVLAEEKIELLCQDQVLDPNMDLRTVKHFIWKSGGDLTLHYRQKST
Turning to `Cn1cc(C(F)(F)F)nc1-c1ccc(Cn2c(=O)n(C)c3cnc(-c4ccccc4C(C)(C)O)nc32)cc1` [Compound I-132, 2-(2-(2-hydroxypropan-2-yl)phenyl)-7-methyl-9-(4-(1-methyl-4-(trifluoromethyl)-1H-imidazol-2-yl)benzyl)-7,9-dihydro-8H-purin-8-one], the IC50 is less than 50 nM.
In the case of `CC(C)c1c(F)cccc1-c1ncc2[nH]c(=O)n(Cc3ccc(-n4ccc(C5CCN(C)CC5)n4)cc3)c2n1` [Compound I-441, 2-(3-fluoro-2-isopropylphenyl)-9-(4-(3-(1-methylpiperidin-4-yl)-1H-pyrazol-1-yl)benzyl)-7,9-dihydro-8H-purin-8-one] it was 50 to 200 nM; in that of `Cn1cc(C(F)(F)F)nc1-c1ccc(Cn2c(=O)[nH]c3cnc(-c4cccnc4NCC4CCCO4)nc32)cc1` (stereo not shown) [Compound I-320, 9-(4-(1-methyl-4-(trifluoromethyl)-1H-imidazol-2-yl)benzyl)-2-(2-(((tetrahydrofuran-2-yl)methyl)amino)pyridin-3-yl)-7,9-dihydro-8H-purin-8-one], 50 to 200 nM; in that of `Cn1cc(C(F)(F)F)nc1-c1ccc(Cn2c(=O)[nH]c3cnc(-c4cccc5c4OC(F)(F)O5)nc32)cc1` [Compound I-36, 2-(2,2-difluorobenzo[d][1,3]dioxol-4-yl)-9-(4-(1-methyl-4-(trifluoromethyl)-1H-imidazol-2-yl)benzyl)-7,9-dihydro-8H-purin-8-one], 200 to 2000 nM.
`CC(C)c1ccccc1-c1ncc2[nH]c(=O)n(Cc3ccc(-c4nnn[nH]4)cc3)c2n1` [Compound I-513, 9-(4-(1H-tetrazol-5-yl)benzyl)-2-(2-isopropylphenyl)-7,9-dihydro-8H-purin-8-one]: the IC50 is more than 2000 nM.
`Cc1cnc(-c2ccc(Cn3c(=O)[nH]c4cnc(-c5ccccc5C(C)C)nc43)cc2)n1C(C)C` [Compound I-536, 9-(4-(1-Isopropyl-5-methyl-1H-imidazol-2-yl)benzyl)-2-(2-isopropylphenyl)-7,9-dihydro-8H-purin-8-one] had an IC50 of less than 50 nM.
In the case of `CC(C)c1ccccc1-c1ncc2[nH]c(=O)n(Cc3ccc(-n4ncc5c4CNC5)cc3)c2n1` [Compound I-102, 9-(4-(5,6-dihydropyrrolo[3,4-c]pyrazol-1(4H)-yl)benzyl)-2-(2-isopropylphenyl)-7,9-dihydro-8H-purin-8-one] it was 200 to 2000 nM; in that of `Cc1nc(-c2ccc(Cn3c(=O)[nH]c4cnc(-c5ccccc5C(C)C)nc43)cc2)no1` [Compound I-152, 2-(2-isopropylphenyl)-9-(4-(5-methyl-1,2,4-oxadiazol-3-yl)benzyl)-7,9-dihydro-8H-purin-8-one], less than 50 nM.
`CC(C)c1ccccc1-c1ncc2[nH]c(=O)n([C@H]3CC[C@@H]3c3ccc(-n4cccn4)cc3)c2n1` [Compound I-164, 9-((1S,2R)-2-(4-(1H-pyrazol-1-yl)phenyl)cyclobutyl)-2-(2-isopropylphenyl)-7,9-dihydro-8H-purin-8-one] displayed a 50% inhibitory concentration (IC50) of 200 to 2000 nM.
In turn, `CN(C)c1ncccc1-c1ncc2[nH]c(=O)n(Cc3ccc(-c4nc(C(F)(F)F)cn4C)cc3)c2n1` [Compound I-323, 2-(2-(dimethylamino)pyridin-3-yl)-9-(4-(1-methyl-4-(trifluoromethyl)-1H-imidazol-2-yl)benzyl)-7,9-dihydro-8H-purin-8-one] showed an IC50 of less than 50 nM.
Molecule `CC(C)c1ccccc1-c1ncc2[nH]c(=O)n(Cc3ccc(-n4ccc([C@H]5CCCNC5)n4)cc3)c2n1` (single isomer, unassigned) [Compound I-225] came in with an IC50 of 50 to 200 nM.
For the molecule `CO[C@H](C)c1ccccc1-c1ncc2[nH]c(=O)n(Cc3ccc(-c4nc(C(F)(F)F)cn4C)cc3)c2n1` [Compound I-55, (R)-2-(2-(1-methoxyethyl)phenyl)-9-(4-(1-methyl-4-(trifluoromethyl)-1H-imidazol-2-yl)benzyl)-7,9-dihydro-8H-purin-8-one], the IC50 is less than 50 nM.
Regarding `CNc1nc(-c2ccccc2C(C)C)nc2c1[nH]c(=O)n2Cc1ccc(-c2nc(C(F)(F)F)cn2C)cc1` [Compound I-532, 2-(2-Isopropylphenyl)-9-(4-(1-methyl-4-(trifluoromethyl)-1H-imidazol-2-yl)benzyl)-6-(methylamino)-7,9-dihydro-8H-purin-8-one], the IC50 was less than 50 nM.
On to `COCCN(C(=O)c1ccc(Cn2c(=O)[nH]c3cnc(-c4ccccc4C(C)C)nc32)cc1)C(C)C` [Compound I-370, N-isopropyl-4-((2-(2-isopropylphenyl)-8-oxo-7,8-dihydro-9H-purin-9-yl)methyl)-N-(2-methoxyethyl)benzamide], for which the IC50 fell in the range of 50 to 200 nM.
Consider `CC(C)c1ccccc1-c1ncc2[nH]c(=O)n(Cc3ccc(-n4ccc(C5CCN(C)CC5)n4)cc3)c2n1` [Compound I-439, 2-(2-isopropylphenyl)-9-(4-(3-(1-methylpiperidin-4-yl)-1H-pyrazol-1-yl)benzyl)-7,9-dihydro-8H-purin-8-one], for which the IC50 fell in the range of 50 to 200 nM.
In turn, `CC(C)c1ccccc1-c1ncc2[nH]c(=O)n(Cc3ccc(-n4cccn4)cc3Cl)c2n1` [Compound I-162, 9-(2-chloro-4-(1H-pyrazol-1-yl)benzyl)-2-(2-isopropylphenyl)-7,9-dihydro-8H-purin-8-one] registered an IC50 of 50 to 200 nM.
The molecule `CCN(CC)Cc1cn(-c2ccc(Cn3c(=O)[nH]c4cnc(-c5ccccc5C(C)C)nc43)cc2)nn1` [Compound I-346, 9-(4-(4-((diethylamino)methyl)-1H-1,2,3-triazol-1-yl)benzyl)-2-(2-isopropylphenyl)-7,9-dihydro-8H-purin-8-one] had an IC50 of more than 2000 nM.
The molecule `Cn1cc(C(F)(F)F)nc1-c1ccc(Cn2c(=O)[nH]c3cnc(-c4cccnc4N4CCCCC4)nc32)cc1` [Compound I-326, 9-(4-(1-methyl-4-(trifluoromethyl)-1H-imidazol-2-yl)benzyl)-2-(2-(piperidin-1-yl)pyridin-3-yl)-7,9-dihydro-8H-purin-8-one] returned an IC50 of less than 50 nM.
Take `CC(C)c1ccccc1-c1ncc2c(n1)n(Cc1ccc(-c3nccn3C3CCNCC3)cc1)c(=O)n2C` [Compound I-499, 2-(2-isopropylphenyl)-7-methyl-9-(4-(1-(piperidin-4-yl)-1H-imidazol-2-yl)benzyl)-7,9-dihydro-8H-purin-8-one]: the IC50 is less than 50 nM.
Molecule `CC(C)c1ccccc1-c1ncc2[nH]c(=O)n(Cc3ccc(C(=O)NCc4ccc(F)cc4)cc3)c2n1` [Compound I-354, N-(4-fluorobenzyl)-4-((2-(2-isopropylphenyl)-8-oxo-7,8-dihydro-9H-purin-9-yl)methyl)benzamide] returned an IC50 of 50 to 200 nM.
The molecule `Cn1cc(C(F)(F)F)nc1-c1ccc(Cn2c(=O)[nH]c3cnc(-c4cccc5ccn(C)c45)nc32)cc1` [Compound I-45, 2-(1-methyl-1H-indol-7-yl)-9-(4-(1-methyl-4-(trifluoromethyl)-1H-imidazol-2-yl)benzyl)-7,9-dihydro-8H-purin-8-one] came in with an IC50 of less than 50 nM.
In the case of `CC(C)c1ccccc1-c1ncc2[nH]c(=O)n(Cc3ccc(C(=O)NCCN(C)C)cc3)c2n1` [Compound I-408, N-(2-(dimethylamino)ethyl)-4-((2-(2-isopropylphenyl)-8-oxo-7,8-dihydro-9H-purin-9-yl)methyl)benzamide], the IC50 is more than 2000 nM.
Take `CC(C)c1ncccc1-c1ncc2[nH]c(=O)n(Cc3ccc(-c4nc(C(F)(F)F)cn4C4CC4)cc3)c2n1` [Compound I-76, 9-(4-(1-cyclopropyl-4-(trifluoromethyl)-1H-imidazol-2-yl)benzyl)-2-(2-isopropylpyridin-3-yl)-7,9-dihydro-8H-purin-8-one]: the IC50 was less than 50 nM.
The molecule `O=c1[nH]c2cnc(-c3cc(Cl)ccc3C3CC3)nc2n1Cc1ccc(-n2cccn2)cc1` [Compound I-95, 9-(4-(1H-pyrazol-1-yl)benzyl)-2-(5-chloro-2-cyclopropylphenyl)-7,9-dihydro-8H-purin-8-one] returned an IC50 of less than 50 nM.
`CC(C)COc1ncccc1-c1ncc2[nH]c(=O)n(Cc3ccc(-c4nc(C(F)(F)F)cn4C)cc3)c2n1` [Compound I-422, 2-(2-isobutoxypyridin-3-yl)-9-(4-(1-methyl-4-(trifluoromethyl)-1H-imidazol-2-yl)benzyl)-7,9-dihydro-8H-purin-8-one] showed an IC50 of less than 50 nM.
Consider `Cc1cc(CO)n(-c2ccc(Cn3c(=O)[nH]c4cnc(-c5ccccc5C5CC5)nc43)cc2)n1` [Compound I-542, 2-(2-Cyclopropylphenyl)-9-(4-(5-(hydroxymethyl)-3-methyl-1H-pyrazol-1-yl)benzyl)-7,9-dihydro-8H-purin-8-one], for which the IC50 was less than 50 nM.
In the case of `CC(C)c1ccccc1-c1ncc2[nH]c(=O)n(Cc3ccc(-n4cccn4)c(F)c3)c2n1` [Compound I-177, 9-(3-fluoro-4-(1H-pyrazol-1-yl)benzyl)-2-(2-isopropylphenyl)-7,9-dihydro-8H-purin-8-one], the IC50 was less than 50 nM.
The result for `CC(C)c1ccccc1-c1ncc2[nH]c(=O)n(Cc3ccc(C(=O)N4CCCC4C)cc3)c2n1` (stereo not shown) [Compound I-390, 2-(2-isopropylphenyl)-9-(4-(2-methylpyrrolidine-1-carbonyl)benzyl)-7,9-dihydro-8H-purin-8-one] reads less than 50 nM; that for `CC(C)c1ccccc1-c1ncc2c(n1)n(Cc1ccc(-c3nccn3C(F)F)cc1)c(=O)n2C` [Compound I-500, 9-(4-(1-(difluoromethyl)-1H-imidazol-2-yl)benzyl)-2-(2-isopropylphenyl)-7-methyl-7,9-dihydro-8H-purin-8-one], less than 50 nM.
`COc1nc(-c2ccc(Cn3c(=O)[nH]c4cnc(-c5ccccc5C(C)C)nc43)cc2)nn1C` [Compound I-295, 2-(2-isopropylphenyl)-9-(4-(5-methoxy-1-methyl-1H-1,2,4-triazol-3-yl)benzyl)-7,9-dihydro-8H-purin-8-one] gave an IC50 of less than 50 nM.
Take `CC(C)c1ccccc1-c1ncc2[nH]c(=O)n(CC3(F)CCN(c4cccnc4)CC3)c2n1` [Compound I-505, 9-((4-Fluoro-1-(pyridin-3-yl)piperidin-4-yl)methyl)-2-(2-isopropylphenyl)-7,9-dihydro-8H-purin-8-one]: the IC50 lay within 200 to 2000 nM.
